{"source": "patent US20070129384A1", "about": "(priority 2003, published 2007)", "tested_on": "Pyricularia oryzae", "format": "in vivo", "conditions": "individual active compound, protective, rice leaves, evaluated 6 days after inoculation, untreated 89% infection", "note": "Read-outs that look alike come from different tables or passages of the source.", "data": [{"compound": "CC1CCN(c2c(-c3c(F)cc(F)cc3F)c(Cl)nc3ncnn23)CC1", "note": "[I, 5-chloro-7-(4-methylpiperidin-1-yl)-6-(2,4,6-trifluorophenyl)-[1,2,4]tri-azolo[1,5-a]pyrimidine]", "values": [{"measurement": "Efficacy in % of the untreated control", "setting": "1 ppm in the spray liquor", "value": 10, "unit": "%"}, {"measurement": "Efficacy in % of the untreated control", "setting": "16 ppm in the spray liquor", "value": 32, "unit": "%"}]}, {"compound": "COC(=O)Nc1nc2ccccc2[nH]1", "note": "[II, methyl (1 H-benzoimidazol-2-yl)carbamate]", "values": [{"measurement": "Efficacy in % of the untreated control", "setting": "4 ppm in the spray liquor", "value": 0, "unit": "%"}, {"measurement": "Efficacy in % of the untreated control", "setting": "16 ppm in the spray liquor", "value": 32, "unit": "%"}]}]}
